The record followed here is the supplement of paper PMC10307832.

What all share (experiment): relative viability (nuclei count vs DMSO), 5 days (fraction); higher = more cells survive
Compound in test [1]: Cc1ccc2nc(NCCN)c3ncc(C)n3c2c1
Summed up:
(§1)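 Viability is treated-well nuclei as a fraction of vehicle-well nuclei, reported as the median across plates. Before counting, lung cancer cell lines were kept overnight at 37 °C in 1536-well plates, pinned with five √10-spaced library-drug doses on vehicle-anchored plates, and left 5 days without medium change, then fixed, permeabilised and Hoechst-stained in one step, imaged at 4× and counted by MetaXpress. A plate passed only if control CV was below 25% and at least one doubling occurred.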

Compound in a further test: O=C(/C=C/c1ccccc1)NC(NC(=S)Nc1cccc2cccnc12)C(Cl)(Cl)Cl [Salubrinal]
The procedure, abridged:
as §1

Compound in test [2]: Cc1ccc2nc(NCCN)c3ncc(C)n3c2c1 + CC(=O)Nc1cccc(-n2c(=O)n(C3CC3)c(=O)c3c(Nc4ccc(I)cc4F)n(C)c(=O)c(C)c32)c1 [Trametinib] (partner 0.02 µM)
The procedure, abridged:
(§2)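 For relative viability, nuclei counts in treated wells were divided by those in vehicle wells. Lung cancer cell lines had been pin-tool dosed in 1536-well plates the day after seeding and cultured for 5 days, then fixed and stained in one step (final 0.05% Triton X-100, 1% formaldehyde, 1 ug/ml Hoechst) and imaged at 4×. Doses were one drug alone or a fixed anchor-drug dose plus five library-drug doses (not always all listed) in √10 steps, and values are duplicate-plate medians.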

Compound in test [3]: Cc1ccc2nc(NCCN)c3ncc(C)n3c2c1 + COc1cc2c(Oc3ccc(NC(=O)C4(C(=O)Nc5ccc(F)cc5)CC4)cc3F)ccnc2cc1OCCCN1CCOCC1 [Foretinib] (partner 0.25 µM)
The procedure, abridged: as §2

For the cell line UMC-11, the relative viability in test [1] (0.04 µM) is 1.01; in test [1] (0.1265 µM), 0.918; in test [1] (0.4 µM), 0.939; in test [1] (1.265 µM), 0.965; in test [1] (4 µM) it was 0.946; with Salubrinal (0.08 µM), 0.901. The relative viability with Salubrinal (0.253 µM) came out at 0.869; with Salubrinal (0.8 µM) it was 1.09; with Salubrinal (2.53 µM) it was 1.01; in the test with Salubrinal (8 µM), 1.03; in test [2] (first compound 0.04 µM) it was 0.707; in test [2] (first compound 0.1265 µM), 0.7. Also, the relative viability in test [2] (first compound 0.4 µM) was found to be 0.72; in test [2] (first compound 1.265 µM), 0.703; in test [2] (first compound 4 µM), 0.632; in test [3] (first compound 0.04 µM) it was 1.02; in test [3] (first compound 0.1265 µM), 0.999; in test [3] (first compound 0.4 µM), 1.02. In addition, the relative viability in test [3] (first compound 1.265 µM) was determined as 1.01; in test [3] (first compound 4 µM), 0.945.
